Experimental data from patent US9365541B2, “Compounds for use in the treatment of parasitic diseases” (IRBM—SCIENCE PARK S.P.A., priority 2012, dated 2016).

What was measured:
human HDAC1 = target: T1, human HDAC1 (Homo sapiens, UniProt Q13547); assay: Homo sapiens HDAC1 inhibition assay (Fluor-de-Lys, enzymatic); type: biochemical; conditions: human HDAC enzymatic assay; read-out: hHDAC IC50
T1 construct: made in house; host or cells: HeLa (ATCC CCL-2), mammalian cells
Summary of the method: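 Product developed with trypsin developer containing 2 μM TSA to stop the reaction; fluorescence measures deacetylase activity, inversely related to inhibition.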

[1] = system: Plasmodium falciparum 3D7; assay: P. falciparum growth inhibition assay (Pf-LDH); type: cell-based; conditions: Plasmodium falciparum, Erythrocyte; P. falciparum 3D7 infected erythrocytes, 72 h incubation, PfLDH readout
Summary of the method: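 P. falciparum 3D7 (chloroquine-sensitive) at 0.25% parasitemia and 2% hematocrit was incubated with compound for 72 h at 37° C under 4% CO2/3% O2/93% N2. After freeze-thaw, PfLDH activity was read at 650 nm with lactate/APAD/NBT/diaphorase mix (pH 8.0).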

T1 sequence (Q13547 whole entry): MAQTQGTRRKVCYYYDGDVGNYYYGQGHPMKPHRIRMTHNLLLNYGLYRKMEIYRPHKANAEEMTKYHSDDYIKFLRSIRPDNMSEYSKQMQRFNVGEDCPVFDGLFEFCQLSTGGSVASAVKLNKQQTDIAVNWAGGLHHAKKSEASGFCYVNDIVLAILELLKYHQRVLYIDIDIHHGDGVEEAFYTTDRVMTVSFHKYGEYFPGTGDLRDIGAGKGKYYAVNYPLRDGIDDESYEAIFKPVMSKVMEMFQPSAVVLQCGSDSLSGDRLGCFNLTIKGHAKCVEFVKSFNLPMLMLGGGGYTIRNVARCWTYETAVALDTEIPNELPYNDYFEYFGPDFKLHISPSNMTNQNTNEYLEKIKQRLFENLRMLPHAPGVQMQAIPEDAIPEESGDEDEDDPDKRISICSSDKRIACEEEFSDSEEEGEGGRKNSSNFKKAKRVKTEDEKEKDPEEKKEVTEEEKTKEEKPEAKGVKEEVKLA

SMILES: CNC(=O)CCCCC[C@H](NC(=O)c1cncs1)c1ncc(-c2ccc(-c3ccn(C)n3)cc2)[nH]1 [Entry 158]
- IC50 (human HDAC1): 1 to 5 µM
- EC50 [1]: < 1 µM

SMILES: CNC(=O)CCCCC[C@H](NC(=O)c1cncs1)c1ncc(-c2ccc(CN(C)C)cc2)[nH]1 [Entry 78, (S)-N-(1-(5-(4-((dimethyl-amino)methyl)phenyl)-1H-imidazol-2-yl)-7-(methylamino)-7-oxoheptyl)thiazole-5-carboxamide]
- IC50 (human HDAC1): 1 to 5 µM
- EC50 [1]: > 5 µM

SMILES: COc1ccc2[nH]c(C)c(CC(=O)N[C@@H](CCCCCC(N)=O)c3nnc(-c4ccc5ccccc5c4)o3)c2c1 [Entry 174, (S)-7-(2-(5-methoxy-2-methyl-1H-indol-3-yl)acetamido)-7-(5-(naphthalen-2-yl)-1,3,4-oxadiazol-2-yl)heptanamide]
- IC50 (human HDAC1): < 1 µM
- EC50 [1]: 1 to 5 µM

SMILES: CNC(=O)CCCCC[C@H](NC(=O)c1cncs1)c1ncc(-c2ccc3[nH]ncc3c2)[nH]1 [Entry 160, (S)-N-(1-(5-(1H-indazol-5-yl)-1H-imidazol-2-yl)-7-(methylamino)-7-oxoheptyl)thiazole-5-carboxamide]
- IC50 (human HDAC1): 1 to 5 µM
- EC50 [1]: < 1 µM

SMILES: CNC(=O)CCCCC[C@H](NC(=O)CN1CCC(N(C)C)C1)c1ncc(-c2cc3ccccc3nc2OC)[nH]1 (stereo partly drawn) [Entry 32, (7S)-7-(2-(3-(dimethyl-amino)pyrrolidin-1-yl)acetamido)-7-(5-(2-methoxyquinolin-3-yl)-1H-imidazol-2-yl)-N-methylheptanamide]
- IC50 (human HDAC1): < 1 µM
- EC50 [1]: > 5 µM

SMILES: CNC(=O)CCCCC[C@H](NC(=O)c1cncs1)c1ncc(-c2ccc(-c3ccccc3)s2)[nH]1 [Entry 205, (S)-N-(7-(methylamino)-7-oxo-1-(5-(5-phenylthiophen-2-yl)-1H-imidazol-2-yl)heptyl)thiazole-5-carboxamide]
- IC50 (human HDAC1): 1 to 5 µM
- EC50 [1]: 1 to 5 µM

SMILES: CNC(=O)CCCCC[C@H](NC(=O)c1cncs1)c1ncc(-c2ccc(Cl)cc2OC)[nH]1 [Entry 57, (S)-N-(1-(5-(4-chloro-2-methoxyphenyl)-1H-imidazol-2-yl)-7-(methylamino)-7-oxoheptyl)thiazole-5-carboxamide]
- IC50 (human HDAC1): 1 to 5 µM
- EC50 [1]: 1 to 5 µM

SMILES: CNC(=O)CCCCC[C@H](NC(=O)Cc1c(C)[nH]c2ccc(OC)cc12)c1nnc(-c2ccc3ccccc3c2)o1 [Entry 200, (S)-7-(2-(5-methoxy-2-methyl-1H-indol-3-yl)acetamido)-N-methyl-7-(5-(naphthalen-2-yl)-1,3,4-oxadiazol-2-yl)heptanamide]
- IC50 (human HDAC1): < 1 µM
- EC50 [1]: 1 to 5 µM

SMILES: CNC(=O)CCCCC[C@H](NC(=O)c1cncs1)c1ncc(-c2ccc(-n3nc(C)cc3C)cc2)[nH]1 [Entry 81, (S)-N-(1-(5-(4-(3,5-dimethyl-1H-pyrazol-1-yl)phenyl)-1H-imidazol-2-yl)-7-(methylamino)-7-oxoheptyl)thiazole-5-carboxamide]
- IC50 (human HDAC1): > 5 µM
- EC50 [1]: > 5 µM

SMILES: CNC(=O)CCCCC[C@H](NC(=O)C1CC1c1ccncc1)c1ncc(-c2ccc(-c3ccn(C)n3)cc2)[nH]1 (stereo partly drawn) [Entry 170, N-((S)-1-(5-(4-(1-methyl-1H-pyrazol-3-yl)phenyl)-1H-imidazol-2-yl)-7-(methylamino)-7-oxoheptyl)-2-(pyridin-4-yl)cyclopropane-carboxamide]
- IC50 (human HDAC1): 1 to 5 µM
- EC50 [1]: 1 to 5 µM

SMILES: CNC(=O)CCCCC[C@H](NC(=O)C1CCN(C)CC1)c1ncc(-c2ccc3ccncc3c2)[nH]1 [Entry 118, (S)-N-(1-(5-(isoquinolin-7-yl)-1H-imidazol-2-yl)-7-(methylamino)-7-oxoheptyl)-1-methylpiperidine-4-carboxamide]
- IC50 (human HDAC1): 1 to 5 µM
- EC50 [1]: 1 to 5 µM

SMILES: CNC(=O)CCCCC[C@H](NC(=O)CCc1nc2ccccc2s1)c1ncc(-c2ccc(-n3cccn3)cc2)[nH]1 [Entry 142, (S)-7-(5-(4-(1H-pyrazol-1-yl)phenyl)-1H-imidazol-2-yl)-7-(3-(benzo[d]thiazol-2-yl)propanamido)-N-methylheptanamide]
- IC50 (human HDAC1): 1 to 5 µM
- EC50 [1]: 1 to 5 µM

SMILES: CNC(=O)CCCCC[C@H](NC(=O)Cc1cnccn1)c1ncc(-c2cc3ccccc3nc2OC)[nH]1 [Entry 76]
- IC50 (human HDAC1): 1 to 5 µM
- EC50 [1]: 1 to 5 µM

SMILES: CNC(=O)CCCCC[C@H](NC(=O)Cn1cc2ccccc2n1)c1ncc(-c2ccc(-c3ccn(C)n3)cc2)[nH]1 [Entry 169, (S)-7-(2-(2H-indazol-2-yl)acetamido)-N-methyl-7-(5-(4-(1-methyl-1H-pyrazol-3-yl)phenyl)-1H-imidazol-2-yl)heptanamide]
- IC50 (human HDAC1): < 1 µM
- EC50 [1]: 1 to 5 µM

SMILES: CNC(=O)CCCCC[C@H](NC(=O)c1cnsc1)c1ncc(-c2ccc(-c3ccn(C)n3)cc2)[nH]1 [Entry 210]
- IC50 (human HDAC1): 1 to 5 µM
- EC50 [1]: < 1 µM

SMILES: CNC(=O)CCCCC[C@H](NC(=O)CCc1c(C)nc2ncnn2c1C)c1ncc(-c2cc3ccccc3nc2OC)[nH]1 [Entry 186, (S)-7-(3-(5,7-dimethyl-[1,2,4]triazolo[1,5-a]pyrimidin-6-yl)propanamido)-7-(5-(2-methoxyquinolin-3-yl)-1H-imidazol-2-yl)-N-methylheptanamide]
- IC50 (human HDAC1): < 1 µM
- EC50 [1]: < 1 µM

SMILES: CNC(=O)CCCCC[C@H](NC(=O)c1cnsn1)c1ncc(-c2ccc3ccccc3c2)[nH]1 [Entry 45, (S)-N-(7-(methylamino)-1-(5-(naphthalen-2-yl)-1H-imidazol-2-yl)-7-oxoheptyl)-1,2,5-thiadiazole-3-carboxamide]
- IC50 (human HDAC1): 1 to 5 µM
- EC50 [1]: > 5 µM

SMILES: CNC(=O)CCCCC[C@H](NC(=O)C1(C)CCCO1)c1ncc(-c2ccc3ccncc3c2)[nH]1 (stereo partly drawn) [Entry 121, N-((S)-1-(5-(isoquinolin-7-yl)-1H-imidazol-2-yl)-7-(methylamino)-7-oxoheptyl)-2-methyltetrahydrofuran-2-carboxamide]
- IC50 (human HDAC1): > 5 µM
- EC50 [1]: > 5 µM

SMILES: CNC(=O)CCCCC[C@H](NC(=O)CN1CCCCC1)c1ncc(-c2ccc3ccccc3c2)[nH]1 [Entry 1]
- IC50 (human HDAC1): 1 to 5 µM
- EC50 [1]: 1 to 5 µM

SMILES: CNC(=O)CCCCC[C@H](NC(=O)CC1=CSC2=NCCCN12)c1ncc(-c2ccc(-n3cccn3)cc2)[nH]1 [Entry 39, (S)-7-(5-(4-(1H-pyrazol-1-yl)phenyl)-1H-imidazol-2-yl)-7-(2-(6,7-dihydro-5H-thiazolo[3,2-a]pyrimidin-3-yl)acetamido)-N-methylheptanamide]
- IC50 (human HDAC1): 1 to 5 µM
- EC50 [1]: 1 to 5 µM

SMILES: CNC(=O)CCCCC[C@H](NC(=O)CCc1nnc(C)[nH]1)c1ncc(-c2ccc3ccncc3c2)[nH]1 [Entry 167]
- IC50 (human HDAC1): 1 to 5 µM
- EC50 [1]: 1 to 5 µM

SMILES: CNC(=O)CCCCC[C@H](NC(=O)Cn1ccc(C)n1)c1ncc(-c2ccc3ccncc3c2)[nH]1 [Entry 119]
- IC50 (human HDAC1): 1 to 5 µM
- EC50 [1]: 1 to 5 µM

SMILES: CNC(=O)CCCCC[C@H](NC(=O)c1cncs1)c1ncc(-c2ccc3ccccc3c2F)[nH]1 [Entry 137, (S)-N-(1-(5-(1-fluoronaphthalen-2-yl)-1H-imidazol-2-yl)-7-(methylamino)-7-oxoheptyl)thiazole-5-carboxamide]
- IC50 (human HDAC1): > 5 µM
- EC50 [1]: > 5 µM

SMILES: CNC(=O)CCCCC[C@H](NC(=O)c1cncs1)c1ncc(-c2cc3ccccc3cc2OC)[nH]1 [Entry 97, (S)-N-(1-(5-(3-methoxynaphthalen-2-yl)-1H-imidazol-2-yl)-7-(methylamino)-7-oxoheptyl)thiazole-5-carboxamide]
- IC50 (human HDAC1): < 1 µM
- EC50 [1]: < 1 µM

SMILES: CNC(=O)CCCCC[C@H](NC(=O)C1CC1c1ccncc1)c1ncc(-c2ccc3ccncc3c2)[nH]1 (stereo partly drawn) [Entry 48, N-((S)-1-(5-(isoquinolin-7-yl)-1H-imidazol-2-yl)-7-(methylamino)-7-oxoheptyl)-2-(pyridin-4-yl)cyclopropane-carboxamide]
- IC50 (human HDAC1): 1 to 5 µM
- EC50 [1]: 1 to 5 µM

SMILES: CNC(=O)CCCCC[C@H](NC(=O)c1cn2ccccc2n1)c1ncc(-c2ccc3ccccc3c2)[nH]1 [Entry 144, (S)-N-(7-(methylamino)-1-(5-(naphthalen-2-yl)-1H-imidazol-2-yl)-7-oxo-heptyl)imidazo[1,2-a]pyridine-2-carboxamide]
- IC50 (human HDAC1): > 5 µM
- EC50 [1]: > 5 µM

SMILES: CNC(=O)CCCCC[C@H](NC(=O)C1CNC(=O)C1)c1ncc(-c2ccc3ccccc3c2)[nH]1 (stereo partly drawn) [Entry 166, N-((S)-7-(methylamino)-1-(5-(naphthalen-2-yl)-1H-imidazol-2-yl)-7-oxoheptyl)-5-oxopyrrolidine-3-carboxamide]
- IC50 (human HDAC1): 1 to 5 µM
- EC50 [1]: 1 to 5 µM

SMILES: CNC(=O)CCCCC[C@H](NC(=O)C12CCN(CC1)CC2)c1ncc(-c2ccc3cc(OC)ccc3c2)[nH]1 [Entry 153, (S)-N-(1-(5-(6-methoxynaphthalen-2-yl)-1H-imidazol-2-yl)-7-(methylamino)-7-oxo-heptyl)quinuclidine-4-carboxamide]
- IC50 (human HDAC1): < 1 µM
- EC50 [1]: < 1 µM

SMILES: CNC(=O)CCCCC[C@H](NC(=O)c1cncs1)c1ncc(-c2ccc3cc(OC)cnc3c2)[nH]1 [Entry 14]
- IC50 (human HDAC1): 1 to 5 µM
- EC50 [1]: 1 to 5 µM

SMILES: CNC(=O)CCCCC[C@H](NC(=O)[C@@H]1CCCN1C)c1ncc(-c2cc3ccccc3nc2OC)[nH]1 [Entry 104, (S)-N-((S)-1-(5-(2-methoxyquinolin-3-yl)-1H-imidazol-2-yl)-7-(methylamino)-7-oxoheptyl)-1-methylpyrrolidine-2-carboxamide]
- IC50 (human HDAC1): > 5 µM
- EC50 [1]: > 5 µM

SMILES: CNC(=O)CCCCC[C@H](NC(=O)Cc1ccccc1)c1ncc(-c2ccc3ccccc3c2)[nH]1 [Entry 21]
- IC50 (human HDAC1): < 1 µM
- EC50 [1]: 1 to 5 µM

SMILES: CNC(=O)CCCCC[C@H](NC(=O)c1cncs1)c1ncc(-c2cnc3ccccc3c2)[nH]1 [Entry 36, (S)-N-(7-(methylamino)-7-oxo-1-(5-(quinolin-3-yl)-1H-imidazol-2-yl)heptyl)thiazole-5-carboxamide]
- IC50 (human HDAC1): 1 to 5 µM
- EC50 [1]: < 1 µM

SMILES: CNC(=O)CCCCC[C@H](NC(=O)CN1CCCC1)c1ncc(-c2ccc3ccncc3c2)[nH]1 [Entry 66]
- IC50 (human HDAC1): 1 to 5 µM
- EC50 [1]: > 5 µM
